Values quoted from earlier work as cited in patent US20260258132A1, “TREATMENT OF LUNG CANCER WITH ANTI-PD-1 AND CHEMOTHERAPY” (BeOne Medicines I GmbH, priority 2023, published 2026).

Test system: ES-SCLC
Details: cited from earlier work; for RMST analysis: difference in OS in prior studies: versus placebo plus chemotherapy

Molecule | median OS in the previous study (first-line treatment for ES-SCLC) | OS HR in the previous study (pembrolizumab arm versus placebo arm, 95% CI 0.64-0.98) | RMST analysis: difference in OS in prior studies
pembrolizumab plus chemotherapy: pembrolizumab (humanized IgG4 anti-PD-1 antibody) plus chemotherapy, first-line ES-SCLC, previous study | 10.8 months | 0.80 | 1.2 month
adebrelimab plus chemotherapy: adebrelimab plus chemotherapy, prior study compared by RMST of OS (antibody, chains of the INN, looked up, V domains shown, plus chemotherapy, adebrelimab plus chemotherapy, prior study compared by RMST of OS) VH: QVQLVQSGAEVKKPGASVKVSCKASGYTFTSYWMHWVRQAPGQGLEWMGRIGPNSGFTSYNEKFKNRVTMTRDTSTSTVYMELSSLRSEDTAVYYCARGGSSYDYFDYWGQGTTVTVSS VL: DIVLTQSPASLAVSPGQRATITCRASESVSIHGTHLMHWYQQKPGQPPKLLIYAASNLESGVPARFSGSGSGTDFTLTINPVEAEDTANYYCQQSFEDPLTFGQGTKLEIK | – | – | 2.3 month
